Measured values: patent US20230141101A1, “PDE4 INHIBITOR COMPOUND AND MEDICAL USE THEREOF” (Suzhou Longbotai Pharmaceuticals Co., Ltd., priority 2020, published 2023)

What was measured:
Assay type in all cases: biochemical
[1] = target: T1, PDE4B1 (Homo sapiens, UniProt Q07343); test: PDE4 inhibitory activity assay (FAM-cAMP enzymatic reaction), PDE4B1
T1 construct: purchased BPS 60041
Procedure: (§1) The compounds of the present disclosure were tested for their inhibitory activity (IC50 value) against PDE4A1A, PDE4B1, and PDE4D2.
(§2) Positive compound: Trequinsin (Sigma, Cat No. T20S7).
(§3) Instrument: Wallac Victor Muti-lable counter (Pekin Elmer) Steps of assay:
(§4) PDE enzymatic reaction; • 1) PDE was dissolved in 1× reaction solution to prepare 2× enzyme solution; • 2) FAM-cAMP was dissolved in 1× reaction solution to prepare 2× substrate solution; • 3) Corresponding volume of the compound in DMSO was transferred to the reaction plate through Echo 550; • 4) 2× enzyme solution was added into the corresponding wells of the reaction plate and incubated with the compound solution for 15 minutes at room temperature; • 5) 2× substrate solution was added into the corresponding well of the reaction plate to initiate the reaction; • 6) After the reaction plate was incubated at room temperature for 30 min, the reaction was terminated by adding reaction stopping solution. The reaction plate was incubated at room temperature for another 60 minutes;
(§5) Inhibition rates were calculated with Excel; and IC50 for each compound was calculated with Graphpad prism.

[2] = target: PDE4D2 (Homo sapiens, UniProt Q08499); test: PDE4 inhibitory activity assay (FAM-cAMP enzymatic reaction), PDE4D2
Procedure: as §1, §2, §3, §4, §5

[3] = target: T2, PDE4A1A (Homo sapiens, UniProt P27815); test: PDE4 inhibitory activity assay (FAM-cAMP enzymatic reaction), PDE4A1A
T2 construct: purchased BPS 60040
Procedure: as §1, §2, §3, §4, §5

[4] = compared with Apremilast and Example 11 of WO2018036470 (WX011)

Sequence of PDE4D2 (Q08499 303-809): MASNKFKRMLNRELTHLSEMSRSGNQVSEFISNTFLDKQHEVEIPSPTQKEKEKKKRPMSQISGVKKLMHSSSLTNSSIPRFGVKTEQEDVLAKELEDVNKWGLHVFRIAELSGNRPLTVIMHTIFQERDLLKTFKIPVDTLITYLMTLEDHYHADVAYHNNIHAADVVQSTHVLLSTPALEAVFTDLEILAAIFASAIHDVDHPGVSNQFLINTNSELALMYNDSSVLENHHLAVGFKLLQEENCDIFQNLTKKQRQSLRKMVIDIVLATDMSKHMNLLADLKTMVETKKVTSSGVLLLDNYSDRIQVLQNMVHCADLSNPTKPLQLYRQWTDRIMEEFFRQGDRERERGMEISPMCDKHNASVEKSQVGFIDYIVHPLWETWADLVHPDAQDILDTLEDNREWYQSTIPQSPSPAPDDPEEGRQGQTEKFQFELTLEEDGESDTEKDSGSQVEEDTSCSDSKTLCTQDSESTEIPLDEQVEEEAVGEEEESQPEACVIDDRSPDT
T2 sequence (P27815 1-647 isoform P27815-4): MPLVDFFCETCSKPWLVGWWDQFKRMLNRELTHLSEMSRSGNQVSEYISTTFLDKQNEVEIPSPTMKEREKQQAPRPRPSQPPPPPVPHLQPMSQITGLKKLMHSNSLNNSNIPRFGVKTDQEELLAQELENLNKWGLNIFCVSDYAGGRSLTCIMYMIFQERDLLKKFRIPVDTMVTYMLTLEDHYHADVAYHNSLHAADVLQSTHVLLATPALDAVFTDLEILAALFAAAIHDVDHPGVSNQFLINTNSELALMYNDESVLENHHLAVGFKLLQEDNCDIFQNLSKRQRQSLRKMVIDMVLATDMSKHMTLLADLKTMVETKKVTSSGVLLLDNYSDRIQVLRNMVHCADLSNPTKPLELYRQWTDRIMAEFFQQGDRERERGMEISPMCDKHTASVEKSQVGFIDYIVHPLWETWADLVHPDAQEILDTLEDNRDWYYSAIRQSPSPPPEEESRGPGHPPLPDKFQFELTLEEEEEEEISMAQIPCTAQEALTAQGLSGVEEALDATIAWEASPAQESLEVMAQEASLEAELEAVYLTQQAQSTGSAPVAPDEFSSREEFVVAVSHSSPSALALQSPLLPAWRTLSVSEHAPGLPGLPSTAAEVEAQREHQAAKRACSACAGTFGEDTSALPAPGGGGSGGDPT
T1 sequence (Q07343 whole entry): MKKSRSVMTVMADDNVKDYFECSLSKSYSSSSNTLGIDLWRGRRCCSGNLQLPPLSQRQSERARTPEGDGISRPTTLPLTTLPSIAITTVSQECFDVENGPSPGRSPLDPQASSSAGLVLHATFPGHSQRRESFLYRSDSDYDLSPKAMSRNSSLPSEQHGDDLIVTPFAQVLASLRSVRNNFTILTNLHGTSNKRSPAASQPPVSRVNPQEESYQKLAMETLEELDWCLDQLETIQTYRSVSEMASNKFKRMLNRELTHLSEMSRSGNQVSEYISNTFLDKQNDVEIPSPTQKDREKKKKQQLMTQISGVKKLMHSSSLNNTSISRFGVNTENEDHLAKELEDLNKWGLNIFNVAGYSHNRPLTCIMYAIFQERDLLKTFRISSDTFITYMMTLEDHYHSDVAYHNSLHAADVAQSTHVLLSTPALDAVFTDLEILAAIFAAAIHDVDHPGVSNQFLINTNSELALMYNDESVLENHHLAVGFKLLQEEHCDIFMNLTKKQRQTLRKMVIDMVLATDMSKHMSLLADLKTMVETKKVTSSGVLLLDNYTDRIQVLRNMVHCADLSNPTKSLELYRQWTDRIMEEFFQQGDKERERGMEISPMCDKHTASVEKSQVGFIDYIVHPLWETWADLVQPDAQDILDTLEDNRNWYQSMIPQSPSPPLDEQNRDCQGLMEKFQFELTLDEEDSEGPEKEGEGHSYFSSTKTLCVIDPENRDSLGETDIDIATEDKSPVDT

Row | Structure (SMILES) | PDE4 B1 inhibitory effect at 20 nM [1] | PDE4 D2 inhibitory effect at 20 nM [2] | PDE4 A1 inhibitory effect at 20 nM [3] | inhibitory activity against PDE4B1 compared with Apremilast and WX011 [1, 4] | inhibitory activity against PDE4D2 compared with Apremilast and WX011 [2, 4] | inhibitory activity against PDE4A1A compared with Apremilast and WX011 [3, 4]
1 | CCOc1nc([C@@H](CS(C)(=O)=O)n2c(=O)n(C)c3cc(-c4ccccc4C(F)(F)F)cnc32)ccc1OC [Ex. 86, (S)-3-(1-(6-ethoxy-5-methoxypyridin-2-yl)-2-(methylsulfonyl)ethyl)-6-(2-(trifluoromethyl)phenyl)-1-methyl-1H-imidazo[4,5-b]pyridin-2(3H)-one] | + | + | + |  |  | 
2 | CCOc1nc([C@@H](CS(C)(=O)=O)n2c(=O)[nH]c3c(C)c(-c4cccc(C)c4F)cnc32)ccc1OC [Ex. 39, (S)-6-(2-fluoro-3-methylphenyl)-3-(1-(6-ethoxy-5-methoxypyridin-2-yl)-2-(methylsulfonyl)ethyl)-7-methyl-1H-imidazo[4,5-b]pyridin-2(3H)-one] | + | + | + |  |  | 
3 | CCOc1nc([C@@H](CS(C)(=O)=O)n2c(=O)[nH]c3cc(-c4cccc(C)c4C)cnc32)ccc1OC [Ex. 103, (S)-6-(2,3-dimethylphenyl)-3-(1-(6-ethoxy-5-methoxypyridin-2-yl)-2-(methylsulfonyl)ethyl)-1H-imidazo[4,5-b]pyridin-2(3H)-one] | + | + | + |  |  | 
4 | CCOc1nc([C@@H](CS(C)(=O)=O)n2c(=O)[nH]c3cc(-c4ccccc4F)cnc32)ccc1OC [Ex. 74, (S)-3-(1-(6-ethoxy-5-methoxypyridin-2-yl)-2-(methylsulfonyl)ethyl)-6-(2-fluorophenyl)-1H-imidazo[4,5-b]pyridin-2(3H)-one] | + | + | + |  |  | 
5 | CCOc1nc([C@@H](CS(C)(=O)=O)n2c(=O)n(C)c3cc(-c4ccc(F)cc4OC)ccc32)ccc1OC [Ex. 189, (S)-5-(4-fluoro-2-methoxyphenyl)-1-(1-(6-ethoxy-5-methoxypyridin-2-yl)-2-(methylsulfonyl)ethyl)-3-methyl-1H-benzo[d]imidazol-2(3H)-one] | + | + | + |  |  | 
6 | CCOc1nc([C@@H](CS(C)(=O)=O)n2c(=O)[nH]c3cc(-c4cccc(F)c4C)cnc32)ccc1OC [Ex. 111, (S)-6-(3-fluoro-2-methylphenyl)-3-(1-(6-ethoxy-5-methoxypyridin-2-yl)-2-(methylsulfonyl)ethyl)-1H-imidazo[4,5-b]pyridin-2(3H)-one] | + | + | + |  |  | 
7 | CCOc1nc([C@@H](CS(C)(=O)=O)n2c(=O)[nH]c3cc(-c4cccc(C)c4C)ccc32)ccc1OC [Ex. 166, (S)-5-(2,3-dimethylphenyl)-1-(1-(6-ethoxy-5-methoxypyridin-2-yl)-2-(methylsulfonyl)ethyl)-1H-benzo[d]imidazol-2(3H)-one] | + | + | + |  |  | 
8 | CCOc1nc([C@@H](CS(C)(=O)=O)n2c(=O)n(C)c3cc(-c4ccc(F)cc4C)cnc32)ccc1OC [Ex. 108, (S)-6-(4-fluoro-2-methylphenyl)-3-(1-(6-ethoxy-5-methoxypyridin-2-yl)-2-(methylsulfonyl)ethyl)-1-methyl-1H-imidazo[4,5-b]pyridin-2(3H)-one] | + | + | + |  |  | 
9 | CCOc1nc([C@@H](CS(C)(=O)=O)n2c(=O)[nH]c3cc(-c4ccc(F)cc4C)ccc32)ccc1OC [Ex. 169, (S)-5-(4-fluoro-2-methylphenyl)-1-(1-(6-ethoxy-5-methoxypyridin-2-yl)-2-(methylsulfonyl)ethyl)-1H-benzo[d]imidazol-2(3H)-one] | + | + | + |  |  | 
10 | CCOc1nc([C@@H](CS(C)(=O)=O)n2c(=O)n(C)c3cc(-c4cccc(F)c4F)cnc32)ccc1OC [Ex. 91, (S)-6-(2,3-difluorophenyl)-3-(1-(6-ethoxy-5-methoxypyridin-2-yl)-2-(methylsulfonyl)ethyl)-1-methyl-1H-imidazo[45-b]pyridin-2(3H)-one] | + | + | + |  |  | 
11 | CCOc1nc([C@@H](CS(C)(=O)=O)N2C(=O)c3csc(NC(=O)C4CC4)c3C2=O)ccc1OC [Ex. 227, (S)—N-(5-(1-(6-ethoxy-5-methoxypyridin-2-yl)-2-(methylsulfonyl)ethyl)-4,6-dioxo-5,6-dihydro-4H-thieno[3,4-c]pyrrol-1-yl)cyclopropanecarboxamide] | + | + | + |  |  | 
12 | CCOc1ccccc1-c1ccc2c(c1)[nH]c(=O)n2[C@@H](CS(C)(=O)=O)c1ccc(OC)c(OCC)n1 [Ex. 193, (R)-1-(1-(6-ethoxy-5-methoxypyridin-2-yl)-2-(methylsulfonyl)ethyl)-5-(2-ethoxyphenyl)-1H-benzo[d]imidazol-2(3H)-one] | − | − | − |  |  | 
13 | CCOc1nc([C@@H](CS(C)(=O)=O)n2c(=O)n(C)c3cc(-c4ccc(C)cc4F)cnc32)ccc1OC [Ex. 116, (S)-6-(2-fluoro-4-methylphenyl)-3-(1-(6-ethoxy-5-methoxypyridin-2-yl)-2-(methylsulfonyl)ethyl)-1-methyl-1H-imidazo[4,5-b]pyridin-2(3H)-one] | + | + | + |  |  | 
14 | CCOc1nc([C@H](CS(C)(=O)=O)N2Cc3cccc(NC(C)=O)c3C2=O)ccc1OC [Ex. 216, (R)—N-(2-(1-(6-ethoxy-5-methoxypyridin-2-yl)-2-(methylsulfonyl)ethyl)-3-oxoisoindolin-4-yl)acetamide] | + | + | + |  |  | 
15 | CCOc1nc([C@@H](CS(C)(=O)=O)n2c(=O)n(C)c3cc(-c4cccc(F)c4C)cnc32)ccc1OC [Ex. 112, (S)-6-(3-fluoro-2-methylphenyl)-3-(1-(6-ethoxy-5-methoxypyridin-2-yl)-2-(methylsulfonyl)ethyl)-1-methyl-1H-imidazo[4,5-b]pyridin-2(3H)-one] | + | + | + |  |  | 
16 | CCOc1nc([C@@H](CS(C)(=O)=O)n2c(=O)[nH]c3cc(-c4ccc(F)cc4F)cnc32)ccc1OC [Ex. 94, (S)-6-(2,4-difluorophenyl)-3-(1-(6-ethoxy-5-methoxypyridin-2-yl)-2-(methylsulfonyl)ethyl)-1H-imidazo[4,5-b]pyridin-2(3H)-one] | + | + | + |  |  | 
17 | CCOc1nc([C@@H](CS(C)(=O)=O)n2c(=O)[nH]c3c(C)c(-c4ccccc4C)cnc32)ccc1OC(F)F [Ex. 64, (S)-3-(1-(5-(difluoromethoxy)-6-ethoxypyridin-2-yl)-2-(methylsulfonyl)ethyl)-7-methyl-6-(o-methylphenyl)-1H-imidazo[4,5-b]pyridin-2(3H)-one] | + | + | + |  |  | 
18 | CCOc1nc([C@@H](CS(C)(=O)=O)n2c(=O)[nH]c3cc(-c4ccccn4)cnc32)ccc1OC [Ex. 122, (S)-6-(pyridin-2-yl)-3-(1-(6-ethoxy-5-methoxypyridin-2-yl)-2-(methylsulfonyl)ethyl)-1H-imidazo[4,5-b]pyridin-2(3H)-one] | + | + | + |  |  | 
19 | CCOc1nc([C@H](CS(C)(=O)=O)n2c(=O)[nH]c3c(C)c(-c4cc(F)ccc4F)cnc32)ccc1OC [Ex. 30, (R)-6-(2,5-difluorophenyl)-3-(1-(6-ethoxy-5-methoxypyridin-2-yl)-2-(methylsulfonyl)ethyl)-7-methyl-1H-imidazo[4,5-b]pyridin-2(3H)-one] | − | − | − | significantly enhanced inhibitory activity | significantly enhanced inhibitory activity | significantly enhanced inhibitory activity
20 | CCOc1nc([C@@H](CS(C)(=O)=O)n2c(=O)n(CC)c3cc(-c4ccccn4)ccc32)ccc1OC [Ex. 197, (S)-1-(1-(6-ethoxy-5-methoxypyridin-2-yl)-2-(methylsulfonyl)ethyl)-3-ethyl-5-(pyridin-2-yl)-1H-benzo[d]imidazol-2(3H)-one] | + | + | + |  |  | 
21 | CCOc1nc([C@@H](CS(C)(=O)=O)N2Cc3cccc(NC(=O)C4CC4)c3C2=O)ccc1OC [Ex. 217, (S)—N-(2-(1-(6-ethoxy-5-methoxypyridin-2-yl)-2-(methylsulfonyl)ethyl)-3-oxoisoindolin-4-yl)cyclopropanecarboxamide] | + | + | + |  |  | 
